The text below walks through data of patent US4079135A, “Morpholine derivatives as antidepressants” (Imperial Chemical Industries Limited, priority 1973, dated 1978).

One series is described as follows: Oral LD50 in mice. Conditions: mouse, in vivo, dosed orally. The procedure:
The compound of the invention 2-(4H-2,3-dihydro-1,4-benzoxazin-3-one-4-ylmethyl)morpholine hydrogen oxalate has an LD50 in mice of 800 mg./kg. when dosed orally.

Series [1] relates to reserpine-induced hypothermia in mice. The experiment in a line: RHL test: reversal of reserpine-induced hypothermia in mice. In kind it is in vivo. Conditions: 4 hours, over a large number of tests, reserpine 2 mg./kg. s.c. 17 h before. The procedure:
This effect is the one primarily used in the art for establishing the relative antidepressant activity in a series of chemically-related compounds. […] Pharmacol., 1962, 14, 509. The RHL test is carried out as follows:-
Mice are kept in a constant temperature room maintained at 21° ± 1° C. Each member of groups of 4 mice is given reserpine (2 mg. of base per kg. bodyweight, given subcutaneously as the acetate). Seventeen hours later the oesophageal temperature (TO) of each mouse is recorded by means of an orally-inserted probe coupled to an electric thermometer which is calibrated in degree Centigrade and which can be read to 0.1° C. Immediately after the temperature measurement the mice are dosed orally with the test compound, or with imipramine, each mouse in a group of 4 being given the same substance, and the oesophageal temperatures are again recorded after 4 hours (T4). The compound under test is dosed at serial dilutions, e.g. 100, 30, 3, 1, 0.3, 0.1 mg./kg. Imipramine is used as the control. […] At 1 mg./kg. it produces an average rise of 1.7° C. A test compound which at a certain dose level gives a rise in temperature equal to or greater than that given by 1 mg./kg. of imipramine, dosed to a different set of mice on the same day, is adjudged "active" at that dose.

SMILES strings stand for the structures. Where a name gives a salt, the structure may show the parent alone.

`O=C1COc2ccccc2N1CC1CNCCO1` (stereo not drawn) [2-(4H-2,3-dihydro-1,4-benzoxazin-3-one-4-ylmethyl)morpholine hydrogen oxalate]: the LD50 – broadly, the dose expected to kill half of the subjects tested – in the series “Oral LD50 in mice” stood at 800 mg/kg.

As for `CN(C)CCCN1c2ccccc2CCc2ccccc21` [imipramine], the “average rise in the temperature of a reserpinised mouse” value in series [1] (1 mg./kg. oral) came out at 1.7 °C; in series [1] (3 mg./kg. oral) it was 3 °C.
